# In patent US20230090255A1, “MAGL INHIBITOR, PREPARATION METHOD THEREFOR AND USE THEREOF” (LUNAN PHARMACEUTICAL GROUP CORPORATION, priority 2019, published 2023):
# How the values were obtained:
# ulcerative colitis mice = assay: Mice ulcerative colitis (DSS); assay type: in vivo, BALB/c mice; conditions: for Total times of hematochezia within the four periods / Colon length / IL-1 content: DSS mice; for Colon length: four periods; for IL-1 content: serum, ELISA; for IL-1 content, in words / colon length, in words / total times of hematochezia, in words: compared with the model group
# [1] = tested on: mice with inflammatory pain; assay: Pain threshold of mice with inflammatory pain (complete Freund's adjuvant); assay type: in vivo, SD mice; conditions: for pain threshold of the mice with inflammatory pain, in words: compared with the model group; for Pain threshold: complete Freund's adjuvant paw model
# [2] = tested on: mice pain response induced by hot plate; assay: Mice pain response induced by hot plate; assay type: in vivo, ICR mice; conditions: for pain thresholds of the thermal-stimulus mice, in words: compared with the model group; for Pain threshold: hot plate 55°C
# Procedure, shortened: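 Female ICR mice (20±2 g) dosed intragastrically for 7 consecutive days. Latency to hind-paw licking on a 55±0.5° C hot plate measured at 30, 60, 90 and 120 min after the last dose, with a 60 s cap. Mice with baseline latency <5 s or >30 s, or jumping, excluded.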
# [3] = tested on: reserpine-induced mice migraine; assay: Reserpine-induced mice migraine; assay type: in vivo, ICR mice; conditions: for blood coagulation time, in words / level of 5-HT in the brain tissue, in words / times of the tail suspension activity, in words: compared with the model group; for Blood coagulation time: reserpine 0.2 mg/kg sc mice, 1 h after final administration; for brain tissue 5-HT / Times of tail suspension (struggling times within 2 min): reserpine mice; for Times of tail suspension (struggling times within 2 min): 9th day
# [4] = high dose 30 mg/kg ig once per day, 0 d
# [5] = high dose 30 mg/kg ig once per day, 1 d
# [6] = high dose 30 mg/kg ig once per day, 3 d
# [7] = high dose 30 mg/kg ig once per day, 7 d
# [8] = low dose 7.5 mg/kg ig once per day, 0 d
# [9] = low dose 7.5 mg/kg ig once per day, 1 d
# [10] = low dose 7.5 mg/kg ig once per day, 3 d
# [11] = low dose 7.5 mg/kg ig once per day, 7 d
# [12] = middle dose 15 mg/kg ig once per day, 0 d
# [13] = middle dose 15 mg/kg ig once per day, 1 d
# [14] = middle dose 15 mg/kg ig once per day, 3 d
# [15] = middle dose 15 mg/kg ig once per day, 7 d
# [16] = high dose 30 mg/kg ig 7 d, 30 min after final administration
# [17] = high dose 30 mg/kg ig 7 d, 60 min
# [18] = high dose 30 mg/kg ig 7 d, 90 min
# [19] = high dose 30 mg/kg ig 7 d, 120 min
# [20] = low dose 7.5 mg/kg ig 7 d, 30 min after final administration
# [21] = low dose 7.5 mg/kg ig 7 d, 60 min
# [22] = low dose 7.5 mg/kg ig 7 d, 90 min
# [23] = low dose 7.5 mg/kg ig 7 d, 120 min
# [24] = middle dose 15 mg/kg ig 7 d, 30 min after final administration
# [25] = middle dose 15 mg/kg ig 7 d, 60 min
# [26] = middle dose 15 mg/kg ig 7 d, 90 min
# [27] = middle dose 15 mg/kg ig 7 d, 120 min
smiles,measurement,setting,value
O=C(Nc1cccc(Cl)c1)C1CCN(C(=O)c2cc3cc(F)ccc3[nH]2)CC1 [MAGLZ-II-18 (a)],Total times of hematochezia within the four periods,ulcerative colitis mice; high dose 30 mg/kg ig,27.90±7.28
same,Colon length,ulcerative colitis mice; high dose 30 mg/kg ig,7.72±0.92 cm
same,IL-1 content,ulcerative colitis mice; high dose 30 mg/kg ig,36.22 ± 4.31 pg/mL
same,Total times of hematochezia within the four periods,ulcerative colitis mice; low dose 7.5 mg/kg ig,33.60±5.83
same,Colon length,ulcerative colitis mice; low dose 7.5 mg/kg ig,6.51±0.90 cm
same,IL-1 content,ulcerative colitis mice; low dose 7.5 mg/kg ig,47.32 ± 9.06 pg/mL
same,Total times of hematochezia within the four periods,ulcerative colitis mice; middle dose 15 mg/kg ig,29.90±8.95
same,Colon length,ulcerative colitis mice; middle dose 15 mg/kg ig,7.06±1.20 cm
same,IL-1 content,ulcerative colitis mice; middle dose 15 mg/kg ig,43.77 ± 10.69 pg/mL
same,"IL-1 content, in words",ulcerative colitis mice,decrease
same,"colon length, in words",ulcerative colitis mice,significantly increase
same,"total times of hematochezia, in words",ulcerative colitis mice,reduce
same,"pain threshold of the mice with inflammatory pain, in words",[1],significantly extend
same,Pain threshold,[1]; [4],12.85 ± 2.26 s
same,Pain threshold,[1]; [5],7.49±0.79^∗∗∗ s
same,Pain threshold,[1]; [6],9.35±1.2^∗∗∗ s
same,Pain threshold,[1]; [7],10.37±1.59^∗∗∗ s
same,Pain threshold,[1]; [8],12.73 ± 2.43 s
same,Pain threshold,[1]; [9],6.97±0.87^∗∗ s
same,Pain threshold,[1]; [10],8.44±1.03^∗∗∗ s
same,Pain threshold,[1]; [11],9.56±0.92^∗∗ s
same,Pain threshold,[1]; [12],12.86 ± 2.25 s
same,Pain threshold,[1]; [13],7.26±0.70^∗∗∗ s
same,Pain threshold,[1]; [14],9.01±0.68^∗∗∗ s
same,Pain threshold,[1]; [15],10.37±1.49^∗∗∗ s
same,"pain thresholds of the thermal-stimulus mice, in words",[2],significantly extend
same,Pain threshold,[2]; [16],40.86 ± 7.17 s
same,Pain threshold,[2]; [17],46.29 ± 5.27 s
same,Pain threshold,[2]; [18],48.70 ± 5.73 s
same,Pain threshold,[2]; [19],47.04 ± 5.54 s
same,Pain threshold,[2]; [20],34.62 ± 6.65 s
same,Pain threshold,[2]; [21],40.29 ± 6.73 s
same,Pain threshold,[2]; [22],43.98 ± 6.55 s
same,Pain threshold,[2]; [23],43.56 ± 6.01 s
same,Pain threshold,[2]; [24],37.51 ± 6.07 s
same,Pain threshold,[2]; [25],42.42 ± 5.90 s
same,Pain threshold,[2]; [26],45.86 ± 7.09 s
same,Pain threshold,[2]; [27],44.38 ± 5.44 s
same,"blood coagulation time, in words",[3],significantly extend
same,"level of 5-HT in the brain tissue, in words",[3],significantly increase
same,"times of the tail suspension activity, in words",[3],significantly increase
same,Blood coagulation time,[3]; high dose 30 mg/kg ig 10 d,252.25±30.99 S
same,Blood coagulation time,[3]; low dose 7.5 mg/kg ig 10 d,137.25±67.22 S
same,Blood coagulation time,[3]; middle dose 15 mg/kg ig 10 d,191.50±63.66 S
same,brain tissue 5-HT,[3]; high dose 30 mg/kg ig 10 d,2.76 ± 0.34 nmol/g
same,Times of tail suspension (struggling times within 2 min),[3]; high dose 30 mg/kg ig,18.50±2.00
same,brain tissue 5-HT,[3]; low dose 7.5 mg/kg ig 10 d,1.21 ± 0.17 nmol/g
same,Times of tail suspension (struggling times within 2 min),[3]; low dose 7.5 mg/kg ig,11.38±2.67
same,brain tissue 5-HT,[3]; middle dose 15 mg/kg ig 10 d,1.65 ± 0.18 nmol/g
same,Times of tail suspension (struggling times within 2 min),[3]; middle dose 15 mg/kg ig,13.38±2.67
O=C(Nc1cccc(Cl)c1)C1CCN(C(=O)c2cc(O)ccc2F)CC1 [MAGLZ-II-11 (a)],Total times of hematochezia within the four periods,ulcerative colitis mice; high dose 30 mg/kg ig,27.90±3.73
same,Colon length,ulcerative colitis mice; high dose 30 mg/kg ig,7.56±0.74 cm
same,IL-1 content,ulcerative colitis mice; high dose 30 mg/kg ig,38.61 ± 10.98 pg/mL
same,Total times of hematochezia within the four periods,ulcerative colitis mice; low dose 7.5 mg/kg ig,28.80±7.04
same,Colon length,ulcerative colitis mice; low dose 7.5 mg/kg ig,7.21±1.10 cm
same,IL-1 content,ulcerative colitis mice; low dose 7.5 mg/kg ig,42.01 ± 13.92 pg/mL
same,Total times of hematochezia within the four periods,ulcerative colitis mice; middle dose 15 mg/kg ig,29.10±7.14
same,Colon length,ulcerative colitis mice; middle dose 15 mg/kg ig,7.20±0.97 cm
same,IL-1 content,ulcerative colitis mice; middle dose 15 mg/kg ig,40.70 ± 8.50 pg/mL
same,"IL-1 content, in words",ulcerative colitis mice,decrease
same,"colon length, in words",ulcerative colitis mice,significantly increase
same,"total times of hematochezia, in words",ulcerative colitis mice,reduce
same,"pain threshold of the mice with inflammatory pain, in words",[1],significantly extend
same,Pain threshold,[1]; [4],12.97 ± 2.32 s
same,Pain threshold,[1]; [5],7.83±1.01^∗∗∗ s
same,Pain threshold,[1]; [6],9.55±1.58^∗∗∗ s
same,Pain threshold,[1]; [7],11.00±161.00^∗∗∗ s
same,Pain threshold,[1]; [8],12.96 ± 2.44 s
same,Pain threshold,[1]; [9],7.38±1.19^∗∗∗ s
same,Pain threshold,[1]; [10],8.87±0.74^∗∗∗ s
same,Pain threshold,[1]; [11],9.91±1.05^∗∗∗ s
same,Pain threshold,[1]; [12],13.03 ± 2.35 s
same,Pain threshold,[1]; [13],7.58±0.84^∗∗∗ s
same,Pain threshold,[1]; [14],9.30±0.75^∗∗∗ s
same,Pain threshold,[1]; [15],10.66±1.30^∗∗∗ s
same,"pain thresholds of the thermal-stimulus mice, in words",[2],significantly extend
same,Pain threshold,[2]; [16],39.45 ± 6.75 s
same,Pain threshold,[2]; [17],46.56 ± 6.35 s
same,Pain threshold,[2]; [18],45.42 ± 6.84 s
same,Pain threshold,[2]; [19],43.73 ± 5.68 s
same,Pain threshold,[2]; [20],36.18 ± 8.50 s
same,Pain threshold,[2]; [21],43.17 ± 7.43 s
same,Pain threshold,[2]; [22],42.83 ± 7.34 s
same,Pain threshold,[2]; [23],42.16 ± 7.05 s
same,Pain threshold,[2]; [24],38.16 ± 7.00 s
same,Pain threshold,[2]; [25],45.47 ± 7.03 s
same,Pain threshold,[2]; [26],43.71 ± 5.87 s
same,Pain threshold,[2]; [27],42.34 ± 7.04 s
same,"blood coagulation time, in words",[3],significantly extend
same,"level of 5-HT in the brain tissue, in words",[3],significantly increase
same,"times of the tail suspension activity, in words",[3],significantly increase
same,Blood coagulation time,[3]; high dose 30 mg/kg ig 10 d,300.63±45.26 S
same,Blood coagulation time,[3]; low dose 7.5 mg/kg ig 10 d,136.75±33.22 S
same,Blood coagulation time,[3]; middle dose 15 mg/kg ig 10 d,256.88±42.93 S
same,brain tissue 5-HT,[3]; high dose 30 mg/kg ig 10 d,2.97 ± 0.28 nmol/g
same,Times of tail suspension (struggling times within 2 min),[3]; high dose 30 mg/kg ig,20.75±4.98
same,brain tissue 5-HT,[3]; low dose 7.5 mg/kg ig 10 d,1.35 ± 0.38 nmol/g
same,Times of tail suspension (struggling times within 2 min),[3]; low dose 7.5 mg/kg ig,16.13±3.68
same,brain tissue 5-HT,[3]; middle dose 15 mg/kg ig 10 d,1.86 ± 0.29 nmol/g
same,Times of tail suspension (struggling times within 2 min),[3]; middle dose 15 mg/kg ig,19.88 ± 4.09
